Assay results: patent US12491204B2, “Use of oleanolic acid-28-O-beta-D-glucopyranoside in preparation of anti-colitis drug” (JILIN UNIVERSITY, priority 2023, dated 2025)

Key:
[1] = system: DSS-induced UC model mice; test: DSS-induced UC model: body weight, DAI score, colon length, spleen coefficient; type: in vivo, BALB/c male mice; settings: for weight loss rate: 3.5% DSS 7 days, gavage once a day Day 4 to Day 10, 28-OA-β-G 5, 10, 20 mg/kg
Protocol: (§1) SPF-grade BALB/c male mice (weighting 22-24 g) were purchased from Changchun Yisi Laboratory Animal Technology Co., Ltd. After 1 week of adaptive feeding, the mice were randomly divided into 6 groups (n=10), including: a control group, a model group, a positive drug group (5-ASA, 100 mg/kg), an oleanolic acid-28-O-β-D-glucopyranoside low-dose group (28-OA-β-GL, 5 mg/kg), an oleanolic acid-28-O-β-D-glucopyranoside medium-dose group (28-OA-β-GM, 10 mg/kg), and an oleanolic acid-28-O-β-D-glucopyranoside high-dose group (28-OA-β-GH, 20 mg/kg).
(§2) The control group was administrated with distilled water, while the other groups were freely allowed to drink a 3.5% dextran sulfate sodium (M.W.: 40,000 Da, DSS) solution for 7 days to induce a UC model. From the Day 4 to Day 10 of modeling, the mice in the control group and the model group were administrated with distilled water by gavage, while the mice in other groups were administrated with a 5-ASA or 28-OA-β-G solution by gavage, respectively. The gavage was performed once a day. The administration volume was 10 ml/kg. After fasting for 12 hours on the Day 10, whole blood was collected from all mice by using an eyeball blood collection method, the mice were killed by cervical dislocation, and colon tissues and spleen tissues were collected.
Body weight and disease activity index scores: during the experiment, all mice were weighed every day, and the general behavior states of the mice were observed; the weight changes, stool states and hematochezia degrees of the mice were recorded every day, and scored according to the criteria shown in Table 3; and an average disease activity index (DAI) score of the mice in each group per day was calculated according to the formula: DAI=(weight loss score+stool state score+hematochezia degree score)/3.
Spleen coefficient: the spleen tissues were dissected and accurately weighed, and the spleen coefficient was calculated using the formula: spleen coefficient=spleen mass (mg)/mouse weight (g), as shown in FIG. 10. The spleen coefficient also reflected the degree of inflammatory response within the body.

[2] = system: DSS-induced UC model mice; test: Inflammatory factor and oxidative stress indicators by ELISA in serum and colon of DSS-induced UC model; type: in vivo, BALB/c male mice; settings: compared with model group; for IL-6 level / TNF-α level / iNOS level: serum and colon, gavage 5-ASA 100 mg/kg, 28-OA-β-G 5, 10, 20 mg/kg
Protocol: SPF-grade BALB/c male mice (weighting 22-24 g) were purchased from Changchun Yisi Laboratory Animal Technology Co., Ltd. After 1 week of adaptive feeding, the mice were randomly divided into 6 groups (n=10), including: a control group, a model group, a positive drug group (5-ASA, 100 mg/kg), an oleanolic acid-28-O-β-D-glucopyranoside low-dose group (28-OA-β-GL, 5 mg/kg), an oleanolic acid-28-O-β-D-glucopyranoside medium-dose group (28-OA-β-GM, 10 mg/kg), and an oleanolic acid-28-O-β-D-glucopyranoside high-dose group (28-OA-β-GH, 20 mg/kg). The control group was administrated with distilled water, while the other groups were freely allowed to drink a 3.5% dextran sulfate sodium (M.W.: 40,000 Da, DSS) solution for 7 days to induce a UC model. From the Day 4 to Day 10 of modeling, the mice in the control group and the model group were administrated with distilled water by gavage, while the mice in other groups were administrated with a 5-ASA or 28-OA-β-G solution by gavage, respectively. The gavage was performed once a day. The administration volume was 10 ml/kg. After fasting for 12 hours on the Day 10, whole blood was collected from all mice by using an eyeball blood collection method, the mice were killed by cervical dislocation, and colon tissues and spleen tissues were collected. Content determination of inflammatory factor and oxidative stress indicators: serum and colon tissue samples were collected, and the contents of TNF-α, IL-6, and iNOS in the serum and colon were determined using an ELISA kit, while the levels of MPO, SOD, and MDA in the colon were detected.

[3] = system: TNF-α, IL-6, and iNOS in Caco-2 cells; test: Inflammatory factors TNF-α, IL-6, iNOS by ELISA in LPS-induced Caco-2 cell model; type: cell-based, Human; settings: LPS 1 μg/ml, 24 hours; high-dose groups 8 μM
Protocol: (§3) (1) Determination of Transmembrane Epithelial Resistance and Inflammatory Factors in Caco-2 Cells
(§4) The Caco-2 cells were inoculated at a density of 1×10^5 cells/ml (400 μl per well) into a Transwell chamber and cultured under 5% CO2 and 37° C. After Day 21, a medium was replaced with a basal MEM medium. […] Resistance values were measured using a transmembrane resistance meter. TEER value=(measured resistance value−control resistance value)×Transwell chamber area, expressed in Ω·cm^2. […]

Caco-2 cells = test: Transmembrane epithelial resistance (TEER) in LPS-induced Caco-2 cells; type: cell-based, Human; settings: LPS 1 μg/ml + 28-OA-β-G 8 μM, 24 hours; compared with LPS treatment
Protocol: as §3, §4

[4] = system: ZO-1, Occludin, Claudin-1, and E-cadherin in Caco-2 cells; test: Expression of tight junction proteins in Caco-2 cells by immunofluorescence; type: cell-based, Human; settings: 24 hours
Protocol: (2) Determination of Expression Level of Tight Junction Proteins in Caco-2 Cells
Caco-2 cells (1×10^5 cells/ml) were inoculated onto a cell climbing slice in a 24-well plate (with 600 μl of cells per well), and reached confluence within 2 days. The cells were divided into 7 groups: a control group, a model group (LPS 1 μg/ml), a 5-ASA group (LPS 1 μg/ml+5-ASA 50 μM), an LPS+28-OA-β-GL group (LPS 1 μg/ml+28-OA-β-G 2 μM), an LPS+28-OA-β-GM group (LPS 1 μg/ml+28-OA-β-G 4 μM), an LPS+28-OA-β-GH group (LPS 1 μg/ml+28-OA-β-G 8 μM), and a 28-OA-β-G group (28-OA-β-G 8 μM). The control group was added with a MEM medium, while the other groups were added with the corresponding doses of LPS and 28-OA-β-G with the MEN medium as a solvent, and incubated in a 5% CO2, 37° C. constant-temperature incubator for 24 hours. Immunofluorescence imaging was performed after a series of treatments.

[5] = system: DSS-induced UC model mice; test: FD4 permeability analysis in DSS-induced UC model; type: in vivo, BALB/c male mice; settings: 20 mg/kg FD4 by gavage 30 minutes before sacrifice; 28-OA-β-G intervention; compared with model group
Protocol: as §1
The control group was administrated with distilled water, while the other groups were freely allowed to drink a 3.5% dextran sulfate sodium (M.W.: 40,000 Da, DSS) solution for 7 days to induce a UC model. […]
FD4 permeability analysis: all mice were administrated with 20 mg/kg FD4 normal saline solution by gavage 30 minutes before sacrifice, whole blood was collected by the eye blood collection method on a sterile ultra-clean table, and the upper serum was taken after centrifugation, and then aspirated into a black 96-well microplate. The fluorescence intensity was detected using a microplate reader at an excitation wavelength of 492 nm and an emission wavelength of 520 nm. […]

[6] = system: DSS-induced UC model mice; test: Transmission electron microscope observation of mouse colon tissues; type: in vivo, BALB/c male mice; settings: 28-OA-β-GH group, 20 mg/kg; compared with model group
Protocol: as §1
as §2, with “collected. […]” for “collected.”

## Nc1ccc(O)c(C(=O)O)c1 [5-ASA, 5-aminosalicylic acid, reference compound]
[1]; 5-ASA 100 mg/kg
  weight loss rate: significantly reduced
[1]; positive drug group, 5-ASA 100 mg/kg, compared with model group
  spleen coefficient: significantly reduced
[2]
  IL-6 level: significantly decreased
  TNF-α level: significantly decreased
  iNOS level: significantly decreased

## CC1(C)CC[C@]2(C(=O)O[C@@H]3O[C@H](CO)[C@@H](O)[C@H](O)[C@H]3O)CC[C@]3(C)C(=CC[C@@H]4[C@@]5(C)CC[C@H](O)C(C)(C)[C@@H]5CC[C@]43C)[C@@H]2C1 [28-OA-β-G, Oleanolic acid-28-O-β-D-glucopyranoside]
[3]
  anti-inflammatory activity (TNF-α, IL-6, iNOS levels), comparison among compounds: best anti-inflammatory activity among the high-dose administration groups
Caco-2 cells
  TEER value: significantly increased
[4]; LPS 1 μg/ml + 28-OA-β-G 2, 4, 8 μM, as dose increased
  distribution on the cell membrane and expression of the four tight junction proteins (ZO-1, Occludin, Claudin-1, E-cadherin): regained their normal distribution on the cell membrane and also increase the expression
[4]; normal cells without LPS, 28-OA-β-G alone 8 μM
  expression of the four tight junction proteins (ZO-1, Occludin, Claudin-1, E-cadherin): not affected
[1]; 5-ASA 100 mg/kg
  weight loss rate: significantly reduced
[1]; 28-OA-β-G 5, 10, 20 mg/kg gavage
  weight changes, relation to dose: positively correlated with the increase in dose
[1]; 28-OA-β-G high-dose group, 20 mg/kg, compared with model group
  spleen coefficient: significantly reduced
[1]; 28-OA-β-G medium-dose group, 10 mg/kg, compared with model group
  spleen coefficient: significantly reduced
[1]; 28-OA-β-GH group, 20 mg/kg gavage
  weight changes: tended towards the control group
[1]; DSS-induced UC model, compared with positive control 5-ASA
  anti-ulcerative-colitis activity (overall conclusion): significant anti-ulcerative-colitis activity which was not statistically different from that of the positive control group of 5-ASA
[1]; Day 10, 28-OA-β-GH group, 20 mg/kg, 5-ASA 100 mg/kg
  DAI score compared to the 5-ASA group: no significant difference compared to the 5-ASA group
[1]; Day 10, 28-OA-β-GH group, 20 mg/kg, compared with model group
  DAI score: significantly lower than that in the model group
[1]; oral administration of 28-OA-β-G 5, 10, 20 mg/kg, compared with model group
  colon length (degree of colon damage): effectively alleviated
[5]
  serum FD4 concentration (FD4 permeability): significantly reduced
[2]; colon
  MDA level: dose-dependently reduce
  MPO level: dose-dependently reduce
  SOD level: increased
[2]
  IL-6 level: significantly decreased
  TNF-α level: significantly decreased
  iNOS level: significantly decreased
[6]
  ultrastructure of colonic mucosa cells (transmission electron microscope): restored the integrity of intestinal mucosa cells
